Earlier results in US8841297B2, “Phenylimidazole derivative as PDE10A enzyme inhibitor” (H. Lundbeck A/S, priority 2009, dated 2014).

Key:
[1] = tested on: cataleptic effect of haloperidol; settings: rats, cited from earlier work
[2] = tested on: PCP induced hyperactivity; settings: rats; cited from earlier work
[3] = tested on: amphetamine induced hyperactivity; settings: rats; cited from earlier work

## COc1ccc(Cc2nccc3cc(OC)c(OC)cc23)cc1OC [Papaverine, papaverine]
[1]; papaverine alone
  catalepsy on its own: did not cause catalepsy on its own
[1]; together with haloperidol
  effect on the cataleptic effect of haloperidol: potentiated the cataleptic effect
[2]
  effect on hyperactivity induced by PCP: reduced hyperactivity
[3]
  reduction of amphetamine induced hyperactivity: insignificant
